A word on the IC50: it is the concentration that gives 50% inhibition.

The text below walks through data of US5001137A, “Pyridine compounds and pharmaceutical use thereof” (Yoshitomi Pharmaceutical Industries, Ltd., priority 1988, dated 1991).

For the assay, the target named is T1, prolylendopeptidase (Rattus norvegicus, UniProt O70196).
T1 construct: using rat cerebral soluble fractions as the crude enzyme; from tissue; host or cells: rat cerebrum, soluble fraction (crude enzyme)
T1 sequence (O70196 whole entry): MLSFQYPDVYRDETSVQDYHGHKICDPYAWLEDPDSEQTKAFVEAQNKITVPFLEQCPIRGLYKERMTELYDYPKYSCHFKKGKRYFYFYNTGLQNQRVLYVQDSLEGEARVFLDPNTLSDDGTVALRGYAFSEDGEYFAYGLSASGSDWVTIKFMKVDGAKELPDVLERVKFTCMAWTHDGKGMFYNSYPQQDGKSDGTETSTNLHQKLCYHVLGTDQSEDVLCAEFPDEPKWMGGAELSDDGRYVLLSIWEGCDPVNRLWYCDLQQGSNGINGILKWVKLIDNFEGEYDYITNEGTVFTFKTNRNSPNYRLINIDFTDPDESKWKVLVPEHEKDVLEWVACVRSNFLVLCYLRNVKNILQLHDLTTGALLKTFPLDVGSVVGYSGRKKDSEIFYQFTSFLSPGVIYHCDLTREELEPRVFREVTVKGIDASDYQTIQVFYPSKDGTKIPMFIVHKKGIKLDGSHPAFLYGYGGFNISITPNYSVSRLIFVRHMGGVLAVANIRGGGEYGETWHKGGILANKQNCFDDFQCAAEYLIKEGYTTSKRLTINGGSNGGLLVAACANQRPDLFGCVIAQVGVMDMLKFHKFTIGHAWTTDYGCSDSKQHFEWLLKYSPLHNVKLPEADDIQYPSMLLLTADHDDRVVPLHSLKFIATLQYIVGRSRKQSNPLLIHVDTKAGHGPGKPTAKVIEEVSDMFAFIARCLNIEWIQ
Kind of assay: Measurement of prolylendopeptidase-inhibitory activity (rat cerebral soluble fractions as crude enzyme; succinyl-glycyl-prolylmethylcoumarinamide substrate, fluorescence). The conditions noted are these: rat cerebral soluble fraction, pH 7.0, 30° C., 15 minutes, 0.25% dimethylsulfoxide. Type of assay: biochemical. As to the method: The prolylendopeptidase-inhibitory activity was estimated, using rat cerebral soluble fractions as the crude enzyme, in accordance with the methods by Yoshimoto et al (Biochem. Biophys. Acta., vol. 569, p 184 (1979)) and Kato et al. (J. Neurochem., vol. 35, p 527 (1980)). That is, a mixture containing 0.1 ml of 0.25 mM succinyl-glycyl-prolylmethylcoumarinamide, 1.15 ml of 0.1M Na/K phosphate buffer solution (pH 7.0), 0.1 ml of the crude enzyme and 0.1 ml of a solution of the compound of the present invention (at the final concentration of dimethylsulfoxide of 0.25%) was incubated at 30° C. for 15 minutes. Thereafter 1.5 ml of 0.1M acetate buffer solution (pH 4.2) was added to terminate the reaction. The fluorescence intensity (a) of the liberated methyl coumarinamide was measured by a fluorophotometer (Ex. 370 nm, Em. 440 nm). At the same time, the fluorescence intensity (b) of the control comprising a dimethylsulfoxide solution alone (at the final concentration of 0.25%) instead of the compound of the present invention was measured, and the prolylendopeptidase-inhibitory rate was calculated in accordance with the following formula and the concentration at which 50% of inhibition (IC50) can be attained was estimated.
Inhibition (%)={(b-a)/b)}×100
Regarding `CN(C)CCc1ccc(Oc2ncccc2C(=O)c2cccs2)cc1` [Example 1, 2-[4-(2-dimethylaminoethyl)phenoxy]-3-(2-thenoyl)pyridine], half-maximal inhibition (IC50) was put at 0.014 µM.
In the case of `CN(C)CCCCCCOc1ccc(Oc2ncccc2C(=O)c2cccs2)cc1` [Example 2, 2-[4-(6-dimethylaminohexyloxy)phenoxy]-3-(2-thenoyl)pyridine] it was 0.03 µM.
With `CN(C)CCCOc1ccc(Oc2ncccc2C(=O)c2cccs2)cc1` [Example 4, 2-[4-(3-dimethylaminopropoxy)phenoxy]-3-(2-thenoyl)pyridine] the figure was 0.06 µM; with `CN(C)CCCCCCSc1ncccc1C(=O)c1cccs1` [Example 5, 2-(6-dimethylaminohexylthio)-3-(2-thenoyl)pyridine], 0.0095 µM.
With `CN(CCCCCCOc1ncccc1C(=O)c1cccs1)Cc1ccccc1` [Example 6, 2-[6-(N-benzyl-N-methylamino)hexyloxy]-3-(2-thenoyl)pyridine] the figure was 0.078 µM; with `CN(C)CCCCCCOc1ncccc1C(=O)c1cccs1` [Example 13, 2-(6-dimethylaminohexyloxy)-3-(2-thenoyl)pyridine], 0.055 µM; with `CC(CSCCCCCCN(C)C)Sc1ncccc1C(=O)c1cccs1` (stereo not shown) [Example 17, 2-[2-(6-Dimethylaminohexylthio)-1-methylethylthio]-3-(2-thenoyl)pyridine], 0.0045 µM.
On to `Cc1ccc(C(=O)c2cccs2)c(SCCCCCCN(C)C)n1` [Example 18, 2-(6-Dimethylaminohexylthio)-6-methyl-3-(2-thenoyl)pyridine], for which it took 0.0095 µM to reach half-maximal inhibition (IC50).
With `CN(C)CCCCCCSCCSc1ncccc1C(=O)c1cccs1` [Example 19, 2-[2-(6-Dimethylaminohexylthio)ethylthio]-3-(2-thenoyl)pyridine] the figure was 0.0045 µM; with `CC(CSCCCN(C)C)Sc1ncccc1C(=O)c1cccs1` (stereo not shown) [Example 20, 2-[2 (3-Dimethylaminopropylthio)-1-methylethylthio]-3-(2-thenoyl)pyridine], 0.0045 µM; with `CC(C)c1ccc(C(=O)c2cccs2)c(SCCCCCCN(C)C)n1` [Example 21, 2-(6-Dimethylaminohexylthio)-6-isopropyl-3-(2-thenoyl)pyridine], 0.0055 µM.
`CCN(CC)CCCCCCSc1nc(C(C)C)ccc1C(=O)c1cccs1` [Example 22, 2-(6-Diethylaminohexylthio)-6-isopropyl-3-(2-thenoyl)pyridine] had a half-inhibitory concentration (IC50) of 0.011 µM.
With `CN(C)CCCOc1ncccc1C(=O)c1ccc(Cl)cc1` [Known Compound, 3-(4-chlorobenzoyl)-2-(3-dimethylaminepropoxy)pyridine, reference compound], the IC50 worked out at 1800 µM.
